These results are taken from US20240269058A1, “AGAR HYDROLYSIS PRODUCT HAVING HYALURONIDASE INHIBITORY ACTIVITY AND USES THEREOF” (KOREA INSTITUTE OF OCEAN SCIENCE & TECHNOLOGY, priority 2022, published 2024).

The test deals with hyaluronidase (HAase). The test is described as follows: Hyaluronidase (HAase) inhibitory activity, N-acetylglucosamine from hyaluronic acid, DMAB absorbance at 540 nm. Type of test: biochemical. The protocol:
The hyaluronidase (HAase) inhibitory activity was identified by measuring N-acetylglucosamine produced by degradation of hyaluronic acid by hyaluronidase. 12.5 μL of HAase (8 mg/mL) dissolved in 0.1 M acetate buffer (pH 3.5) was mixed with 12.5 μL of agar partial hydrolysis product (PHP) at a concentration of 9 mg/mL and reacted at 37° C. for 20 minutes. To activate the HAase, the mixture was added with 25 μL of 12.5 mM CaCl2) and reacted at 37 °C for 20 minutes, and added with 62.5 μL of hyaluronic acid (2.4 mg/ml) dissolved in 0.1 M acetate buffer (pH 3.5) and reacted at 37° ° C. for 40 minutes again. To stop the substrate-enzyme reaction, the reaction solution was added with 25 μl of 0.4 N NaOH and 25 μl of 0.4 N potassium tetraborate, reacted at 100° C. for 3 minutes, and then cooled. The reaction solution was added with 750 μl of a DMAB solution and cultured at 37 °C for 20 minutes, and the absorbance was measured at 540 nm. The inhibitory activity was calculated using the following equation.

One may read the IC50 as the concentration that gives 50% inhibition. A higher IC50 goes with weaker potency.

The compound `O=C([O-])c1cc(=O)c2c(OCC(O)COc3cccc4oc(C(=O)[O-])cc(=O)c34)cccc2o1.[Na+].[Na+]` [DSCG, Disodium cromoglycate] registered an IC50 (hyaluronidase inhibition) of 28 ± 10 µg/mL. Also, the “Inhibition (%)” value (sample solution 1 mg/mL) turned out to be 65.32 ± 0.20%.
